What follows are molecules tested against TNFα (Homo sapiens, UniProt P01375) (assay: TNFα FP Competitive Binding Assay). Details: 20 nM TNFα trimer, 1 nM OregonGreen488 probe, read-out: TNF IC50.
Experimental: TNFα FP Competitive Binding Assay
Prepare 1× Assay Buffer (Water with 47 mil HEPES, 47 mM NaCl, 0.9 mM EDTA, 0.0071% Triton X-100) by adding 25 mL of 1 M HEPES, 5 mL of 5 M NaCl, 1 mL of 0.5 M EDTA, and 375 μL of a 10% Triton X-100 stock to a fresh 500 mL bottle of water.
Prepare fresh Assay Mixture containing 20 nM TNFα trimer (60 nM protein) and 1 nM 2′,7′-difluoro-3′,6′-dihydroxy-N-(2-(2-(2-((4-(isoquinolin-8-yl)-3-(4-(isoquinolin-8-yl)phenethoxy)benzyl)oxy)ethoxy)ethoxy)ethyl)-3-oxo-3H- spiro[isobenzofuran-1,9′-xanthene]-5-carboxamide probe in 1× Assay Buffer.
Top concentration of compounds, 10 mM in DMSO, dispensed in rows A-O in columns 1 and 13. Compounds are serially diluted 1:3 with DMSO in columns 2-12 or 14-24 using a 16-channel Matrix pipettor. Plates stored at −20° C.
Top concentration, 5 mM in DMSO, of compounds placed in rows A-O in columns 1 and 13.
Compounds are serially diluted 1:3 with DMSO in columns 2-12 or 14-24. Compound solutions are dispensed into replicate assay plates at 410 nL per well. Plates stored at 4° C.
TNFα FP Competitive Binding Assay Protocol • 1. Compound plates warmed to rt. • 2. Fresh Assay Mixture is prepared. • 3. Assay Mixture (20 μL) is dispensed each well of 384 assay plates using a Thermo Multidrop Combi or 16-channel Matrix pipettor. If Manual 12-point 1:3 Dilution Plates are to be tested, Assay Mix is dispensed into empty plates. Discovery Preps 12-point 1:3 Dilution Plates already contain 410 nL compound solution in DMSO. • 4. For Manual 12-point 1:3 Dilution Plates, 0.7 μL is manually transferred using a 16-channel Matrix pipettor to replicate assay plates containing 20 μL Assay Mixture for a final top compound concentration of […] (3.4% DMSO). • 5. For Discovery Preps 12-point 1:3 Dilution Plates, 20 μL Assay Mixture added the 410 nL compound solution already in the plates yields a final top compound concentration of 100 μM (2.0% DMSO). • 6. Background subtraction controls are wells P1-P8 containing only Assay Buffer. The low % inhibition controls are wells P9-P16 containing only Assay Mix. The high % inhibition are wells P17-P24 containing only 1 nM 2′,7′-difluoro-3′,6′-dihydroxy-N-(2-(2-(2-((4-(isoquinolin-8-yl)-3-(4-(isoquinolin-8-yl)phenethoxy)benzyl)oxy)ethoxy)ethoxy)ethyl)-3-oxo-3H-spiro[isobenzofuran-1,9′-xanthene]-5-carboxamide probe in 1× Assay Buffer. • 7. Plates are incubated at rt for 18-24 h in […] (CO2 is off). • 8. Prior to reading the assay, the plates are placed in a dark cabinet to equilibrate at rt for one hour. • 9. Background-subtracted fluorescence polarization (mP) is measured using a PerkinElmer Envision plate reader. • 10. Raw data is entered into Assay Explorer and dose-response curves are generated using a variable slope curve.

TNFα, sequence (P01375 77-233 limits assumed): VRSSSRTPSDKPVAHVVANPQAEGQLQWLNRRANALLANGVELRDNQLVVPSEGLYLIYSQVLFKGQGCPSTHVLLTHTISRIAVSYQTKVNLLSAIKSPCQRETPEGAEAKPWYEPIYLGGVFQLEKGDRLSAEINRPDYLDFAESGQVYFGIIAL

| IC50 | Structure (SMILES) |
| --- | --- |
| 1000 to 10000 nM | O=C1C[C@H](CNc2ncc(-c3ccc4c(=O)n5n(c4c3)[C@@H](c3ccccc3OC(F)F)CC5)cn2)CN1 (single isomer, unassigned) [Example 4.5] |
| < 1000 nM | O=c1c2ccc(-c3cnc(N4CCC5(CC4)CC(O)C5)nc3)cc2n2n1CC[C@@H]2c1ccccc1OC(F)F (single isomer, unassigned) [Example 4.7] |
| < 1000 nM | O=c1c2ccc(-c3cnc(N4CCO[C@H](CO)C4)nc3)cc2n2n1CC[C@@H]2c1ccccc1OC(F)F (single isomer, unassigned) [Example 3.1] |
| 1000 to 10000 nM | O=c1c2ccc(-c3cnc(N4CCC(O)CC4)nc3)cc2n2n1CCCC2c1ccccc1OC(F)F (centres unmarked) [Example 7.2, 6-(2-(difluoromethoxy)phenyl)-3-(2-(4-hydroxypiperidin-1-yl)pyrimidin-5-yl)-8,9-dihydro-6H-pyridazino[1,2-a]indazol-11(7H)-one] |
| > 10000 nM | CC(C)n1nccc1C1CCn2c(=O)c3ccc(-c4cnc(N5CCOCC5)nc4)cc3n21 (centres unmarked) [Example 8.5, 3-(1-isopropyl-1H-pyrazol-5-yl)-6-(2-morpholinopyrimidin-5-yl)-2,3-dihydropyrazolo[1,2-a]indazol-9(1H)-one] |
| 1000 to 10000 nM | O=c1c2ccc(-c3cnc(N4CCOCC4)nc3)cc2n2n1CCC2c1ccccc1 (centres unmarked) [Example 8.2, 6-(2-morpholinopyrimidin-5-yl)-3-phenyl-2,3-dihydropyrazolo[1,2-a]indazol-9(1H)-one] |
| < 1000 nM | Cc1ccc(OC(F)F)c([C@H]2CCn3c(=O)c4ccc(-c5cnc(N6CCN7C(=O)NC[C@H]7C6)nc5)cc4n32)c1 (single isomer, unassigned) [Example 15.1] |
| < 1000 nM | CC(C)(O)c1ncc(-c2cc3c(cc2F)c(=O)n2n3[C@@H](c3ccccc3OC(F)F)CC2)cn1 (single isomer, unassigned) [Example 12.1] |
| 1000 to 10000 nM | CC(C)(O)c1ncc(-c2ccc3c(c2)[C@H]2[C@@H](c4ccccc4OC(F)F)CCN2C3=O)cn1 (single isomer, unassigned) [Example 10.2] |
| 1000 to 10000 nM | COC[C@H]1CCCN1c1ncc(-c2ccc3c(c2)[C@@H]2[C@H](c4ccccc4OC(F)F)CCN2C3=O)cn1 (single isomer, unassigned) [Example 10.3] |
| 1000 to 10000 nM | O=C(O)C1CCN(c2ncc(-c3ccc4c(=O)n5n(c4c3)C(c3ccccc3OC(F)F)CC5)cn2)CC1 (centres unmarked) [Example 1.3, 1-(5-(3-(2-(difluoromethoxy)phenyl)-9-oxo-1,2,3,9-tetrahydropyrazolo[1,2-a]indazol-6-yl)pyrimidin-2-yl)piperidine-4-carboxylic acid] |
| < 1000 nM | O=c1c2ccc(-c3cnc(N4CCO[C@@H](CO)C4)nc3)cc2n2n1CC[C@H]2c1ccccc1OC(F)F (single isomer, unassigned) [Example 1.9] |
| < 1000 nM | O=c1c2ccc(-c3cnc(N4CCC5(CC4)CC(O)C5)nc3)cc2n2n1CC[C@H]2c1ccccc1OC(F)F (single isomer, unassigned) [Example 4.8] |
| < 1000 nM | Cc1nc(C(C)(C)O)ncc1-c1ccc2c(=O)n3n(c2c1)[C@@H](c1ccccc1OC(F)F)CC3 [Example 6.6] |
| 1000 to 10000 nM | CC(C)(O)c1ncc(-c2ccc3c(=O)n4n(c3c2)[C@H](c2ccccc2OC(F)F)CC4)cn1 (single isomer, unassigned) [Example 4.1] |
| > 10000 nM | CC(C)(O)c1ncc(-c2ccc3c(c2)[C@@H]2[C@H](c4ccccc4OC(F)F)CCN2C3=O)cn1 (single isomer, unassigned) [Example 10.1] |
| < 1000 nM | O=c1c2ccc(-c3cnc(N4CCOCC4)nc3)cc2n2n1CCCC2c1ccccc1OC(F)F (centres unmarked) [Example 7.1, 6-(2-(difluoromethoxy)phenyl)-3-(2-morpholinopyrimidin-5-yl)-8,9-dihydro-6H-pyridazino[1,2-a]indazol-11(7H)-one] |
| < 1000 nM | O=C1NC[C@H]2CN(c3ncc(-c4ccc5c(=O)n6n(c5c4)[C@H](c4ccccc4OC(F)F)CC6)cn3)CCN12 (single isomer, unassigned) [Example 5.1] |
| 1000 to 10000 nM | COc1c(C#N)cccc1C1CCn2c(=O)c3ccc(-c4cnc(N5CCOCC5)nc4)cc3n21 (centres unmarked) [Example 8.4, 2-methoxy-3-(6-(2-morpholinopyrimidin-5-yl)-9-oxo-1,2,3,9-tetrahydropyrazolo[1,2-a]indazol-3-yl)benzonitrile] |

| IC50 | Structure (SMILES) |
| --- | --- |
| < 1000 nM | Cc1ccc(OC(F)F)c([C@@H]2CCn3c(=O)c4cc(F)c(-c5cnc(C(C)(C)O)nc5)cc4n32)c1 (single isomer, unassigned) [Example 13.2] |
| < 1000 nM | O=C1NC[C@H]2CN(c3ncc(-c4ccc5c(=O)n6n(c5c4)[C@@H](c4ccccc4OC(F)F)CC6)cn3)CCN12 (single isomer, unassigned) [Example 6.1] |
| < 1000 nM | O=c1c2ccc(-c3cnc(N4CCO[C@@H](CO)C4)nc3)cc2n2n1CC[C@@H]2c1ccccc1OC(F)F (single isomer, unassigned) [Example 1.8] |
| 1000 to 10000 nM | COC[C@H]1CCCN1c1ncc(-c2ccc3c(=O)n4n(c3c2)[C@@H](c2ccccc2OC(F)F)CC4)cn1 (single isomer, unassigned) [Example 1.5] |
| < 1000 nM | O=C1NC[C@@H]2CN(c3ncc(-c4ccc5c(=O)n6n(c5c4)[C@@H](c4ccccc4OC(F)F)CC6)cn3)CCN12 (single isomer, unassigned) [Example 6.2] |
| < 1000 nM | Cc1ccc(OC(F)F)c([C@@H]2CCn3c(=O)c4ccc(-c5cnc(C(C)(C)O)nc5)cc4n32)c1 [Example 14.2] |
| < 1000 nM | O=c1c2ccc(-c3cnc(N4CCOCC4)nc3)cc2n2n1CC[C@H]2c1ccccc1OC(F)F (single isomer, unassigned) [Example 1.2] |
| < 1000 nM | CC(C)(O)c1ncc(-c2cc3c(cc2F)c(=O)n2n3[C@H](c3ccccc3OC(F)F)CC2)cn1 (single isomer, unassigned) [Example 12.2] |
| < 1000 nM | C[C@@H]1CN(c2ncc(-c3ccc4c(=O)n5n(c4c3)[C@@H](c3ccccc3OC(F)F)CC5)cn2)CCN1C(=O)CO (single isomer, unassigned) [Example 6.4] |
| < 1000 nM | O=c1c2ccc(-c3cnc(N4CCO[C@H](CO)C4)nc3)cc2n2n1CC[C@H]2c1ccccc1OC(F)F (single isomer, unassigned) [Example 2.1] |
| < 1000 nM | CC(=O)N1CCN(c2ncc(-c3ccc4c(=O)n5n(c4c3)[C@@H](c3ccccc3OC(F)F)CC5)cn2)C[C@H]1C (single isomer, unassigned) [Example 6.3] |
| < 1000 nM | O=C1NC[C@@H]2CN(c3ncc(-c4ccc5c(c4)[C@H]4[C@@H](c6ccccc6OC(F)F)CCN4C5=O)cn3)CCN12 (single isomer, unassigned) [Example 11.1] |
| < 1000 nM | Cc1ccc(OC(F)F)c([C@H]2CCn3c(=O)c4cc(F)c(-c5cnc(C(C)(C)O)nc5)cc4n32)c1 (single isomer, unassigned) [Example 13.1] |
| 1000 to 10000 nM | O=c1c2ccc(-c3cnc(N[C@@H]4CCOC4)nc3)cc2n2n1CC[C@@H]2c1ccccc1OC(F)F (single isomer, unassigned) [Example 1.6] |
| < 1000 nM | O=c1c2ccc(-c3cnc(N4CCOCC4)nc3)cc2n2n1CCC2c1ccccc1OC(F)F (centres unmarked) [Example 1, 3-(2-(Difluoromethoxy)phenyl)-6-(2-morpholinopyrimidin-5-yl)-2,3-dihydropyrazolo[1,2-a]indazol-9(1H)-one] |
| < 1000 nM | O=C1NC[C@H]2CN(c3ncc(-c4ccc5c(c4)[C@H]4[C@@H](c6ccccc6OC(F)F)CCN4C5=O)cn3)CCN12 (single isomer, unassigned) [Example 11.2] |
| < 1000 nM | O=c1c2ccc(-c3cnc(N4CCOCC4)nc3)cc2n2n1CC[C@@H]2c1ccccc1OC(F)F (single isomer, unassigned) [Example 1.1] |
| < 1000 nM | O=c1c2ccc(-c3cnc(N4CCC(O)CC4)nc3)cc2n2n1CCC2c1ccccc1OC(F)F (centres unmarked) [Example 4.2, 3-(2-(difluoromethoxy)phenyl)-6-(2-(4-hydroxypiperidin-1-yl)pyrimidin-5-yl)-2,3-dihydropyrazolo[1,2-c]indazol-9(1H)-one] |
| 1000 to 10000 nM | COC[C@H]1CCCN1c1ncc(-c2ccc3c(=O)n4n(c3c2)[C@H](c2ccccc2OC(F)F)CC4)cn1 (single isomer, unassigned) [Example 1.4] |

Source: patent US10273238B2, “Indazolones as modulators of TNF signaling” (AbbVie Inc., priority 2015, dated 2019)
